According to patent publication US20110300199A1, “PEPTIDES USED IN THE TREATMENT AND/OR CARE OF THE SKIN, MUCOUS MEMBRANES AND/OR SCALP AND THEIR USE IN COSMETIC OR PHARMACEUTICAL COMPOSITIONS” (LIPOTEC, S.A., priority 2009, published 2011):
Non-standard residues stand in square brackets, D forms with d. Phg = N[C@H](C(=O)O)c1ccccc1

These substances were tested against T1, elastase (Sus scrofa, UniProt P00772) (assay: Elastase inhibition assay (EnzChek Elastase Assay Kit, DQ Elastin substrate)). Conditions: peptides at 0.1 mM, pre-incubated 1 hour with 0.4 unit/mL elastase; DQ Elastin 25 μg/mL, 2 h; normalized to baseline.
T1 construct: purchased Molecular Probes
T1 sequence (P00772 27-266): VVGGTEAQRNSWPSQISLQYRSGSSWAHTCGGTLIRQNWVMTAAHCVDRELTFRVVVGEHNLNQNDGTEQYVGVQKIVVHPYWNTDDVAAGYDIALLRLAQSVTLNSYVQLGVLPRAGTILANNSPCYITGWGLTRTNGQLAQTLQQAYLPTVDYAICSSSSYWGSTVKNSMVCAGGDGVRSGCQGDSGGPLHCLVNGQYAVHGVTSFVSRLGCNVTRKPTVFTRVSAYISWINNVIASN
Assay type: biochemical
Method: The peptides were resuspended in water in the presence of 0.5% DMSO. The assay was conducted on black microplates with 96 wells using the EnzChek® Elastase Assay Kit (Molecular Probes). For this purpose, the peptides were pre-incubated at 0.1 mM for 1 hour with 0.4 unit/mL of elastase at room temperature with moderate stirring, after which the conjugated substrate was added to fluorescein (DQ™ Elastin) at a final concentration of 25 μg/mL and reactions were incubated for 2 h at room temperature with stirring and protected from light. The substrate, whose fluorescence is inhibited, is digested by elastase to release fluorescent fragments which are monitored by fluorescence with a FLUOstar galaxy reader (BMG LabTechnologies) using 485 nm filters for excitation and 530 nm filters for emission.
Inhibition values were normalized with respect to baseline values of average inhibition.

First: Ac-L-Arg-Phg-L-Trp-Phg-NH—(CH2)15—CH3
Second: Ac-L-Arg-Phg-L-Trp-Phg-OH
The “Elastase inhibition percentage (% inhibition)” value of the first is lower: 53.7% for the first, 90.3% for the second.

Going from Ac-L-Arg-Phg-L-Val-Phg-OH to Ac-L-Nle-Phg-L-Trp-Gly-OH, the “Elastase inhibition percentage (% inhibition)” value falls from 82.3% to 69.6%.

Compared with Ac-L-Nle-Phg-L-Trp-Phg-OH, Ac-L-Nle-Phg-L-Val-Gly-OH is lower in “Elastase inhibition percentage (% inhibition)” value: 90.0% for the first, 62.7% for the second.

Going from Ac-L-Nle-Phg-L-Val-Phg-OH to Ac-Phg-L-Trp-Phg-OH, the “Elastase inhibition percentage (% inhibition)” value falls from 73.8% to 45.1%.

Compared with Ac-Phg-Phg-L-Trp-Gly-OH, Ac-Phg-Phg-L-Trp-Phg-OH is higher in “Elastase inhibition percentage (% inhibition)” value: 65.0% for the first, 84.2% for the second.

Going from Ac-Phg-Phg-L-Val-Phg-OH to Ac-R[Phg]VG-OH, the “Elastase inhibition percentage (% inhibition)” value rises from 76.1% to 81.4%.

Compared with Ac-R[Phg]WG-OH, Ac-[Phg][Phg]VG-OH is lower in “Elastase inhibition percentage (% inhibition)” value: 66.9% for the first, 64.2% for the second.

For Palm-L-Arg-Phg-L-Trp-Phg-NH2, the “Elastase inhibition percentage (% inhibition)” value was 57.1%.

These substances were tested against T2, Human neutrophil elastase (Homo sapiens, UniProt P08246) (assay: Human elastase inhibition assay (fluorogenic substrate MeOSuc-Ala-Ala-Pro-Val aminomethyl coumarin)). Conditions: 0.2 μg/ml protease, peptides 0.05-2 mM, 1 hour preincubation, substrate 25 μg/mL, 2 h; read-out: IC50 (minimum inhibitory concentration of peptides against human elastase).
T2 sequence (P08246 30-267): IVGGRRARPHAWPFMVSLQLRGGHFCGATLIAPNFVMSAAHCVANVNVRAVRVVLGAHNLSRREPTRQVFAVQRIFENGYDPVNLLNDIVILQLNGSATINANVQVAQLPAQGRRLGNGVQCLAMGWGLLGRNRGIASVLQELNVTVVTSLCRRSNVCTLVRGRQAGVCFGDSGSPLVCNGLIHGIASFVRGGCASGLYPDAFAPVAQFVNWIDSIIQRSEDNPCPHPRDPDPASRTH
Assay type: biochemical
Method: Human neutrophil elastase was reconstituted at 5 μg/mL in 50 mM sodium acetate, 200 mm NaCl, pH 5.5 buffer. 0.2 μg/ml of protease were preincubated with the peptides at a final concentration of 0.05-2 mM in a black microplate with 96 wells for 1 hour at room temperature. After preincubation, 25 μg/mL of substrate (MeOSuc-Ala-Ala-Pro-Val aminomethyl coumarin) were added to the wells and the samples were incubated for 2 h at room temperature and protected from light. The fluorescence released by digestion of the substrate was measured with an automated multiplate fluorescence reader, exciting at 370 nm and reading at 460 nm.
The results were corrected from the baseline fluorescence value in the absence of elastase and product, and were normalized with respect to the fluorescence of the control, and the minimum inhibitory concentration for each of the peptides was determined.

Compared with H-L-Arg-Phg-L-Trp-Phg-OH, H-L-Arg-Phg-L-Val-Gly-OH is 4-fold higher in IC50: 103 µM for the first, 407 µM for the second. The first is the more potent here.

With H-L-Arg-Phg-L-Val-Phg-OH the IC50 was 94 µM.

The substances below were run on Human dermal fibroblasts (assay: Collagen synthesis stimulation assay (secreted Collagen Type I by ELISA)). Conditions: peptides at 15 μg/ml, 48 h, medium analysed by ELISA; normalized to vehicle negative control.
Assay type: cell-based
Method: Human dermal fibroblasts were grown until confluence in MI06 medium supplemented with specific growth factors for fibroblasts. Then, they were strypsinized and seeded at 5×10^4 cells/well in 24-well plates. After 24 h of incubation at 37° C. in 5% CO2 atmosphere, fresh medium was added with scalar dilutions of the peptides at 15 μg/ml or with vehicle as negative control. Cells were incubated for 48 additional hours, after which medium was collected.
The analysis of the amount of secreted Collagen Type I was performed by means of an ELISA assay. Briefly, 96-well plated were coated with 50 μL per well of the previously collected medium and allowed to adsorb overnight at 4° C. in a humidified atmosphere. Then the plates were washed 3 times with PBS (+0.05% Tween-20) and blocked for 1 h with 3% BSA. After blocking, the plates were treated with an anti-Collagen Type I antibody (1:1000 in PBS, 0.05% Tween-20, 1% BSA) for 2 h. After this incubation, the secondary antibody (goat anti-mouse IgG-HRP antibody, Molecular Probes, 1:1000 in PBS, 0.05% Tween-20, 1% BSA) was added. Plates were incubated with […] substrate for 30 min and the reaction was stopped by adding 3 M H2SO4. Absorbance at 490 nm was read using a microplate reader and collagen concentration determined using a linear regression standard curve for Collagen Type I. Values were normalized in respect to the collagen values for the negative control experiment and the increase in the Collagen Type I was calculated for all the treatments.

Compared with H-L-Arg-Phg-L-Trp-Phg-OH, H-L-Arg-Phg-L-Val-Gly-OH is lower in “Increase of Collagen Type I by treatment with the peptides” value: 99% for the first, 16% for the second.

H-L-Arg-Phg-L-Val-Phg-OH was tested, and the “Increase of Collagen Type I by treatment with the peptides” value was 18%.
